Like-named read-outs stand apart in the source and are kept apart here.
What was measured:
[1] = test system: fetal hemoglobin gene HBG1; assay: HBG1 Nanostring Assay in CD34+ HSPC erythroid differentiation culture; assay type: cell-based, human; details: for EC50: HBG1 induction, Day10 of erythroid differentiation; for Nanostring Ymax obs (%): relative to a control compound (C1)
Procedure: A Nanostring Assay was performed to evaluate the ability of the compounds to induce expression of the fetal hemoglobin gene HBG1 in cells. The data are shown as EC50, with stronger inducers having a lower EC50 value and higher YMax.
Forty eight hours later (day −2), the cells were passaged at a density of 200,000 cells/ml (100 ul/well in 96well culture plate) in complete expantion media. The cells were plated at 200,000 cells/ml on day 0 and day 3, 400,000 cells/ml on day 5 in phase 1 erythroid differentiation containing StemSpan with 2.5 U/mL of EPO (R&D systems, 287-TC-500), 0.5 mg/mL of Holo-Transferrin (Sigma, T0665-500MG), 1× Glutamine (Gluta-Max) (Gibco, 35050-061), 5 μL/mL Lipid Mixture (Sigma, L0288-100ML), 50 ng/mL SCF (R&D Systems, 255-SV-050), 10 ng/mL IL-3 (R&D Systems, 203-IL010) and 10 ng/mL Insulin (Sigma, I9278-5ML) all 200 μl per well in 96 well culture plate. Cells were then passaged at 500,000 cells/ml and 200 μl per well on day 7 in phase 2 Erythroid differentiation (Phase 1 erythroid differentiation removing IL-3) until collection day (Day10). The culture conditions were used for both control DMSO as well as experimental treatments.
For all cell pasagings, cells were centrifuged at 300 g for 8 minutes at room temperature and cell number were normalized by MANTIS and Integra VIAFLO 384. All the compounds are diluted in DMSO and added to complete media by Formulatrix FAST and mixed starting from day −2. Cells were counted by Luna cell counter with AOPI Staining Solution (Nexcelom Bioscience, CS2-0106-25 mL) on day-2. Cells were counted by BD FACSCelesta Flow Cytometer with CountBright™ Plus Absolute Counting Beads (Thermal Fisher Scientific, C36995) and SYTOX AADvanced™ Ready Flow™ Reagent (Invitrogen, R37173) for other passages. Cells were cultured at 37° C. and 5% CO2. DMSO concentration was kept at 0.1% to minimize any effects to the cells by the vehicle. […] Compound plates were kept at room temperature to protect from light to avoid multiple freeze and thaw cycle.
On the collection day (Day10), 100K cells were collected and stored at −80° C. For direct hybridization for Nanostring, 100K cell pellet was lyzed in 25 μL of RLT (QIAGEN, 79216) with 1×β-Mercaptoethanol (Gibco, 21985-023) and shaked at 300-500 RPM for 5 minutes at room temperature. Cell lysate was stored in −80° C. after lysis.
All hybridizations were done in a total volume of 15 μL (3 μL of RNA lysate added to master mix of 12 μL probe A/B, capture probe/reporter probes, proteinase K and attenuation oligos suspended in hybridization buffer). Samples were hybridized at 67° C. for 22 hr. Following hybridization, the tripartide complexes were purified, immobilized by nCounter Prep Station and imaged by Digital Analyzer (nCounter MAX/FLEX Analysis System), to generate digital counts of barcodes corresponding to each target in the multiplexed reaction. Labeled barcodes obtained from unamplified extracts were counted at 555 images or field of view (FOV). The barcode counts for each sample were recorded in Reporter Code Count (RCC) files that are imported into nSolver analysis software (provided with CodeSet by NS) for quality control evaluation.
The quality control (QC) metric included limit of detection QC by checking for wells with less than 100 total counts for positive controls.
Hybridization signals were normalized against the ERCC positive controls and CodeSet Content (housekeeping gene). Briefly, this involved first calculating a sample-specific scaling factor by calculating arithmetic mean of geomeans of all ERCC positive controls with counts more than zero in all samples. Then this arithmetic mean was divided by the geometric mean of each lane to generate a lane-specific normalization factor. All negative controls and target-specific signal values were then normalized by multiplying counts values with their sample-specific scaling factor. The acceptable range for scaling factors is 0.3-3.0. […]

[2] = molecular target: DCN1 (DCUND1) protein PONY domain (Homo sapiens (Human), UniProt Q96GG9); assay: TR-FRET assay, DCN1 binding with FAM-labeled probe
Chain of DCN1 (DCUND1) protein PONY domain (Q96GG9 60-248): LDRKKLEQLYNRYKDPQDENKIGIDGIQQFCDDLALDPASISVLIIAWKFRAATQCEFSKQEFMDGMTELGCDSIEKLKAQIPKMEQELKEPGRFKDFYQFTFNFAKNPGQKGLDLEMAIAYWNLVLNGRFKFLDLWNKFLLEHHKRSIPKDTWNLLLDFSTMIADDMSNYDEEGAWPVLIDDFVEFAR
How it was run: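 First, the E. coli-derived PONY domain was biotinylated and paired with streptavidin Tb cryptate. Compounds in 0.1% DMSO were then added to DCN1 and FAM-probe (5 nM/20 nM, or 0.31 nM/900 nM total with 800 nM unlabelled) in TritonX, 200 mM NaCl buffer. Finally, TR-FRET ratios were recorded at 1, 5 and 24 hrs.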

DCN1 protein = DCN1 protein (Homo sapiens (Human), UniProt Q96GG9); assay: Intact Protein MS Analysis with the RapidFire-TOF System (covalent adduct formation); assay type: binding; details: MS Emax; 400 nM DCN1, 3 hours at room temperature
Chain of DCN1 protein (Q96GG9 whole entry): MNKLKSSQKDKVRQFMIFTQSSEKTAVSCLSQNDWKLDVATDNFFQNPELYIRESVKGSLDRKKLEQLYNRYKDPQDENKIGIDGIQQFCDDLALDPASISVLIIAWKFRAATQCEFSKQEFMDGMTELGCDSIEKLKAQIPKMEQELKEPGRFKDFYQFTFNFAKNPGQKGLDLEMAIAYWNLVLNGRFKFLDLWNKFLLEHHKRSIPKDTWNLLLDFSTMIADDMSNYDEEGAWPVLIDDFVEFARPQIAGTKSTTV
How it was run: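 Tag-cleaved human DCN1 (400 nM) expressed in E. coli, in 25 mM Tris-HCl, 200 mM NaCl, 1 mM DTT, was incubated with 11 compound concentrations for 3 h at room temperature and quenched with 0.2% formic acid. Intact-protein Q-TOF MS with deconvolution detected the compound adduct mass.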

[3] = test system: Cullin-3 (CUL3) neddylation; assay: AlphaLISA assay for Cullin-3 (CUL3) neddylation in TF 1 cells; assay type: cell-based; details: 3 hours treatment
How it was run: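 TF 1 cells in unsupplemented IMDM treated with compound concentrations for 3 h, then lysed. CUL3 neddylation detected by AlphaLISA (biotinylated anti-NEDD8, anti-CUL3 acceptor beads overnight, streptavidin donor beads 1 h); normalized to vehicle (0%) and 1 μM DI-1548 (100%), IC50 from Hill fits.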

[4] = 24 hr after treatment with compound, read-out: TR FRET IC50 24 hr
[5] = TR FRET IC50 1 hr (nM), 1 hr after treatment with compound

| SMILES | EC50 ([1]; Homo sapiens, 240 h) [nM] | Nanostring Ymax obs (%) [1] | IC50 [2, 4] [nM] | IC50 ([2]; read-out: TR FRET IC50 1 hr, 1 hr after treatment with compound) [nM] | % Adduct Formation (DCN1 protein) | EC50 [1] [nM] | IC50 [3] [nM] | IC50 [2, 5] [nM] |
| --- | --- | --- | --- | --- | --- | --- | --- | --- |
| CCN1C(=O)[C@@H](NC(=O)c2cccc(C(F)(F)F)c2)[C@@H](c2ccc(F)cc2)c2c(C(=O)N3CC[C@@H](C#N)C3)nn(-c3ccccc3)c21 (mixture of isomers) [Compound I-60] | > 1000 | ++ (Nanostring Ymax greater than 50.0 and less than or equal to 100.0) | 200 to 1000 | ≤ 200 | + (MS Emax % adduct formation greater than or equal to 0.0 and less than or equal to 30.0) | – | – | – |
| CCN1C(=O)[C@@H](NC(=O)c2cccc(C(F)(F)F)c2)[C@@H](c2ccc(F)cc2)c2c([C@@H](C)NC#N)nn(-c3ccccc3)c21 (mixture of isomers) [Compound I-167] | – | ++ (Nanostring Ymax greater than 50.0 and less than or equal to 100.0) | – | – | +++ (MS Emax % adduct formation greater than 80.0 and less than or equal to 100.0) | 100 to 1000 | ≤ 100 | – |
| CCN1C(=O)[C@@H](NC(=O)c2cccc(C(F)(F)F)c2)[C@@H](c2ccc(F)cc2)c2c(CCNC#N)nn(-c3ccccc3)c21 (racemic) [Compound I-10, rac-N-((4R,5R)-3-(2-cyanamidoethyl)-7-ethyl-4-(4-fluorophenyl)-6-oxo-1-phenyl-4,5,6,7-tetrahydro-1H-pyrazolo[3,4-b]pyridin-5-yl)-3-(trifluoromethyl)benzamide] | 100 to 1000 | ++ (Nanostring Ymax greater than 50.0 and less than or equal to 100.0) | ≤ 200 | – | ++ (MS Emax % adduct formation greater than 30.0 and less than or equal to 80.0) | – | – | 200 to 1000 |
| CCN1C(=O)[C@@H](NC(=O)c2cccc(C(F)(F)F)c2)[C@@H](c2ccc(F)cc2)c2c(C/C=C/C(=O)NC)nn(-c3ccccc3)c21 (racemic) [Compound I-38] | > 1000 | + (Nanostring Ymax greater than or equal to 0.0 and less than or equal to 50.0) | 1000 to 3000 | – | + (MS Emax % adduct formation greater than or equal to 0.0 and less than or equal to 30.0) | – | – | 1000 to 3000 |
| CCN1C(=O)[C@@H](NC(=O)c2cccc(C(F)(F)F)c2)[C@@H](c2ccc(F)cc2)c2c(NC(=O)C3(C#N)CCOCC3)nn(-c3ccccc3)c21 (racemic) [Compound I-66] | > 1000 | + (Nanostring Ymax greater than or equal to 0.0 and less than or equal to 50.0) | 200 to 1000 | – | + (MS Emax % adduct formation greater than or equal to 0.0 and less than or equal to 30.0) | – | – | – |
| C=C(CN1CCC(F)(F)C1)C(=O)NCc1nn(-c2ccccc2)c2c1[C@H](c1ccc(F)cc1)[C@H](NC(=O)c1cccc(C(F)(F)F)c1)C(=O)N2CC (racemic) [Compound I-72] | 100 to 1000 | ++ (Nanostring Ymax greater than 50.0 and less than or equal to 100.0) | 200 to 1000 | – | + (MS Emax % adduct formation greater than or equal to 0.0 and less than or equal to 30.0) | – | – | 200 to 1000 |
| CCN1C(=O)[C@@H](NC(=O)c2cccc(C(F)(F)F)c2)[C@@H](c2ccc(F)cc2)c2c(C3(NC#N)CC3)nn(-c3ccccc3)c21 (racemic) [Compound I-87] | 100 to 1000 | ++ (Nanostring Ymax greater than 50.0 and less than or equal to 100.0) | ≤ 200 | – | +++ (MS Emax % adduct formation greater than 80.0 and less than or equal to 100.0) | – | – | 200 to 1000 |
| C=C(CO)C(=O)NCc1nn(-c2ccccc2)c2c1[C@H](c1ccc(F)cc1)[C@H](NC(=O)c1cccc(C(F)(F)F)c1)C(=O)N2CC (racemic) [Compound I-116, rac-N-((4R,5R)-7-ethyl-4-(4-fluorophenyl)-3-((2-(hydroxymethyl)acrylamido)methyl)-6-oxo-1-phenyl-4,5,6,7-tetrahydro-1H-pyrazolo[3,4-b]pyridin-5-yl)-3-(trifluoromethyl)benzamide] | > 1000 | + (Nanostring Ymax greater than or equal to 0.0 and less than or equal to 50.0) | 200 to 1000 | – | + (MS Emax % adduct formation greater than or equal to 0.0 and less than or equal to 30.0) | – | – | 200 to 1000 |
| CCN1C(=O)[C@@H](NC(=O)c2cccc(C(F)(F)F)c2)[C@H](c2ccc(F)cc2)c2c(CN(C)C(=O)/C=C/C(=O)OC)nn(-c3ccccc3)c21 (racemic) [Compound I-141, methyl (˜{E})-4-[[(4˜{S},5˜{S})-7-ethyl-4-(4-fluorophenyl)-6-oxo-1-phenyl-5-[[3-(trifluoromethyl)benzoyl]amino]-4,5-dihydropyrazolo[3,4-b]pyridine-3-yl]methyl-methyl-amino]-4-oxo-but-2-enoate] | > 1000 | ++ (Nanostring Ymax greater than 50.0 and less than or equal to 100.0) | – | – | + (MS Emax % adduct formation greater than or equal to 0.0 and less than or equal to 30.0) | – | – | 200 to 1000 |
| CCN1C(=O)[C@@H](NC(=O)c2cccc(C(F)(F)F)c2)[C@@H](c2ccc(F)cc2)c2c(CCN(C)C#N)nn(-c3ccccc3)c21 (racemic) [Compound I-151, rac-N-((4R,5R)-7-ethyl-4-(4-fluorophenyl)-3-(2-(N-methylcyanamido)ethyl)-6-oxo-1-phenyl-4,5,6,7-tetrahydro-1H-pyrazolo[3,4-b]pyridin-5-yl)-3-(trifluoromethyl)benzamide] | > 1000 | ++ (Nanostring Ymax greater than 50.0 and less than or equal to 100.0) | ≤ 200 | – | +++ (MS Emax % adduct formation greater than 80.0 and less than or equal to 100.0) | – | – | 200 to 1000 |
| CCN1C(=O)[C@@H](NC(=O)c2cccc(C(F)(F)F)c2)[C@@H](c2ccc(F)cc2)c2c(CNC(=O)C3=C(C(=O)OC)CC3)nn(-c3ccccc3)c21 [Compound I-119] | 100 to 1000 | ++ (Nanostring Ymax greater than 50.0 and less than or equal to 100.0) | 200 to 1000 | – | + (MS Emax % adduct formation greater than or equal to 0.0 and less than or equal to 30.0) | – | – | 200 to 1000 |

Source: US20250163057A1, “DCN-1 MODULATING COMPOUNDS AND METHODS OF USE THEREOF” (Cellarity, Inc., priority 2023, published 2025)
